Results published in ChEMBL document CHEMBL1137178, “Design, synthesis and antimalarial activity of a glyoxylylhydrazone library” (Bioorg Med Chem Lett, 2004).

How the values were obtained:
Plasmodium falciparum [1] = assay: Growth inhibition against Plasmodium falciparum FcB1 at 200 nM; format: functional
[2] = molecular target: T1, Histidine-rich protein PFHRP-II (Plasmodium falciparum) (UniProt P05227); assay: In vitro inhibition of beta-hematin formation in Plasmodium falciparum at 100 uM; format: functional
T1 sequence (whole entry): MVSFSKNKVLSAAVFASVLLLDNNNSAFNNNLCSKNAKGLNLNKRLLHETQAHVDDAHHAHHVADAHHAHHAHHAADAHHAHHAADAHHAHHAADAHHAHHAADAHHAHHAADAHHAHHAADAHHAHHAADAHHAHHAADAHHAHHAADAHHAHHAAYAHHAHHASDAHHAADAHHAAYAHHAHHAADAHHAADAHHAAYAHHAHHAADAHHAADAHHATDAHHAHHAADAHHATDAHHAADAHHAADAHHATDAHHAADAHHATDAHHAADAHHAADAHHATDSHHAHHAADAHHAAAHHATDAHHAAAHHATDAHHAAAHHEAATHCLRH

MRC5 [3] = assay: Cytotoxic effect on human diploid embryonic lung cell line (MRC-5) using the colorimetric MTT assay; format: functional
Plasmodium falciparum [4] = assay: Inhibitory concentration against chloroquine-resistant Plasmodium falciparum FcB1; format: functional, organism-based
MRC5 [5] = assay: Selectivity index measured as CC50/IC50; format: functional, Homo sapiens
Plasmodium falciparum [6] = assay: Growth inhibitory concentration against chloroquine-resistant Plasmodium falciparum; format: functional, organism-based

SMILES | inhibition at 0.2 µM (Plasmodium falciparum [1]) [%] | inhibition [2] [%] | CC50 (MRC5 [3]) [µM] | IC50 (Plasmodium falciparum [4]) [nM] | SI (MRC5 [5]) | IC50 (Plasmodium falciparum [6]) [nM]
COC(=O)c1sccc1N/N=C/C(=O)NCCCCCCCNc1ccnc2cc(Cl)ccc12 | 13 | 11 |  |  |  | 
CCN(CC)CCCC(C)Nc1ccnc2cc(Cl)ccc12 (centres undefined) [CHLOROQUINE] |  | 55 | 50 |  |  | 
CC(C)(C)N/N=C/C(=O)NCCCCCCCNc1ccnc2cc(Cl)ccc12 |  | 0 |  | 60 |  | 
CN(/N=C/C(=O)NCCCCCCCNc1ccnc2cc(Cl)ccc12)c1ncccc1[N+](=O)[O-] | 3 | 18 |  |  |  | 
O=C(/C=N/Nc1ccc(F)cc1F)NCCCCCCCNc1ccnc2cc(Cl)ccc12 |  | 0 |  | 105 |  | 
CC(C)(C)c1ccc(N/N=C/C(=O)NCCCCCCCNc2ccnc3cc(Cl)ccc23)cc1 | 32 | 1 |  |  |  | 
O=C(/C=N/OCc1c(F)c(F)c(F)c(F)c1F)NCCCCCCCNc1ccnc2cc(Cl)ccc12 | 33 | 0 |  |  |  | 
C=CCO/N=C/C(=O)NCCCCCCCNc1ccnc2cc(Cl)ccc12 |  | 3 |  | > 500 |  | 
CCOCC(=O)N/N=C/C(=O)NCCCCCCCNc1ccnc2cc(Cl)ccc12 | 59 | 12 |  |  |  | 
CC(C)(C)O/N=C/C(=O)NCCCCCCCNc1ccnc2cc(Cl)ccc12 | 14 | 0 |  |  |  | 
COc1ccc2nc(N/N=C/C(=O)NCCCCCCCNc3ccnc4cc(Cl)ccc34)nnc2c1 |  | 28 | 2.5 | 45 | 34 | 73.7
O=C(/C=N/OCc1ccc([N+](=O)[O-])cc1)NCCCCCCCNc1ccnc2cc(Cl)ccc12 |  | 0 | 1.7 | 5 | 27 | 62.3
CO/N=C/C(=O)NCCCCCCCNc1ccnc2cc(Cl)ccc12 | 11 | 4 |  |  |  | 
O=C(/C=N/NCc1ccccc1)NCCCCCCCNc1ccnc2cc(Cl)ccc12 |  | 0 | 14.6 | 35 | 91 | 161
O=C(/C=N/Nc1c(Cl)cc(C(F)(F)F)cc1Cl)NCCCCCCCNc1ccnc2cc(Cl)ccc12 |  | 7 | 9.2 | 16 | 104 | 88.7
O=C(/C=N/Nc1ccc(F)c(Cl)c1)NCCCCCCCNc1ccnc2cc(Cl)ccc12 |  | 0 |  | 200 |  | 
Cc1ccc(N/N=C/C(=O)NCCCCCCCNc2ccnc3cc(Cl)ccc23)c(C)c1 |  | 8 |  | 86 |  | 
O=C(/C=N/O)NCCCCCCCNc1ccnc2cc(Cl)ccc12 | 10 | 6 |  |  |  | 
O=C(/C=N/Nc1ccnc2cc(Cl)ccc12)NCCCCCCCNc1ccnc2cc(Cl)ccc12 |  | 0 | 1.4 | 7 | 73 | 19.3
O=C(/C=N/Nc1ccccc1)NCCCCCCCNc1ccnc2cc(Cl)ccc12 | 0 | 0 |  |  |  | 
O=C(/C=N/Nc1ccc(Cl)nn1)NCCCCCCCNc1ccnc2cc(Cl)ccc12 |  | 0 |  | 180 |  | 
O=C(/C=N/OCc1ccccc1)NCCCCCCCNc1ccnc2cc(Cl)ccc12 | 29 | 0 |  |  |  | 
Cc1cc(N/N=C/C(=O)NCCCCCCCNc2ccnc3cc(Cl)ccc23)nc2c1c(C)nn2C |  | 0 | 1.8 | 30 | 28 | 63.9
O=C(/C=N/Nc1cnc2ccccc2n1)NCCCCCCCNc1ccnc2cc(Cl)ccc12 |  | 0 |  | 90 |  | 
CCO/N=C/C(=O)NCCCCCCCNc1ccnc2cc(Cl)ccc12 | 11 | 0 |  |  |  | 
O=C(/C=N/Nc1nc(-c2cccs2)ns1)NCCCCCCCNc1ccnc2cc(Cl)ccc12 | 8 | 19 |  |  |  | 
Cc1cc(N/N=C/C(=O)NCCCCCCCNc2ccnc3cc(Cl)ccc23)nc(C)n1 | 0 | 19 |  |  |  | 
O=C(/C=N/Nc1ccc([N+](=O)[O-])cc1[N+](=O)[O-])NCCCCCCCNc1ccnc2cc(Cl)ccc12 |  | 25 | 11.1 | 13 | 235 | 47.3
O=C(/C=N/Nc1ccc(Cl)cc1Cl)NCCCCCCCNc1ccnc2cc(Cl)ccc12 | 0 | 12 |  |  |  | 
